Results published in BindingDB's records for doi:10.1021/jm000541z (Abbott Laboratories, 2001).

Biological target: Alpha-1B adrenergic receptor (Mesocricetus auratus) (UniProt P18841)
Test: Binding affinity to hamster alpha-1B adrenergic receptor

Sequence of Alpha-1B adrenergic receptor (Mesocricetus auratus) (P18841 whole entry, looked up): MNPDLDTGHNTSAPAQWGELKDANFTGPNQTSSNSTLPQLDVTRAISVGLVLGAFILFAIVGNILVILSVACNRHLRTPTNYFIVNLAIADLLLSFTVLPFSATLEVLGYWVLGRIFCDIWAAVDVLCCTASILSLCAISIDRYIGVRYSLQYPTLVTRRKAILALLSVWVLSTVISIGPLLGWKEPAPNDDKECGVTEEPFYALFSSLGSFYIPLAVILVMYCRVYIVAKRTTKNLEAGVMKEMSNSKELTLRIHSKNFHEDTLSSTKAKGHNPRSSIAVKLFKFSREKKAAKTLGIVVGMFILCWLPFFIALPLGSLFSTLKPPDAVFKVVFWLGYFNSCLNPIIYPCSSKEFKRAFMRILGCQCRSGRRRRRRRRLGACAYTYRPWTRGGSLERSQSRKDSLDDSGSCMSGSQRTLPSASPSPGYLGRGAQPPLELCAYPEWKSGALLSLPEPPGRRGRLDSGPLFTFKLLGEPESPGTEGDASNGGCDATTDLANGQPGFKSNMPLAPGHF

Row | SMILES | Ki [nM]
1 | COc1cc(N)c(C(=O)NCCN2C[C@@H]3CCc4c(OC)cccc4[C@@H]3C2)cc1OC [2-Amino-4,5-dimethoxy-N-[2-(6-methoxy-1,3,3a,4,5,9b-hexahydro-benzo[e]isoindol-2-yl)-ethyl]-benzamide] | 29.1
2 | COc1cc2c(cc1OC)CN(CCN1C[C@@H]3CCc4c(OC)cccc4[C@@H]3C1)CC2 [2-[2-(6,7-Dimethoxy-3,4-dihydro-1H-isoquinolin-2-yl)-ethyl]-6-methoxy-2,3,3a,4,5,9b-hexahydro-1H-benzo[e]isoindole] | 116
3 | COc1cccc2c1CC[C@H]1CN(CCn3c(=O)[nH]c4c(sc5ncc(Cl)nc54)c3=O)C[C@@H]21 [3-Chloro-7-[2-(6-methoxy-1,3,3a,4,5,9b-hexahydro-benzo[e]isoindol-2-yl)-ethyl]-5H-9-thia-1,4,5,7-tetraaza-fluorene-6,8-dione] | 35.1
4 | COc1cccc2c1CC[C@H]1CN(CCn3c(=O)[nH]c4[nH]ccc4c3=O)C[C@@H]21 [3-[2-(6-Methoxy-1,3,3a,4,5,9b-hexahydro-benzo[e]isoindol-2-yl)-ethyl]-1,7-dihydro-pyrrolo[2,3-d]pyrimidine-2,4-dione] | 2.58
5 | COc1cccc2c1CC[C@H]1CN(CCn3c(=O)[nH]c4nccnc4c3=O)C[C@@H]21 [3-[2-(6-Methoxy-1,3,3a,4,5,9b-hexahydro-benzo[e]isoindol-2-yl)-ethyl]-1H-pteridine-2,4-dione] | 12.6
6 | COc1cccc2c1CC[C@H]1CN(CCn3c(=O)[nH]c4ncccc4c3=O)C[C@@H]21 [3-[2-(6-Methoxy-1,3,3a,4,5,9b-hexahydro-benzo[e]isoindol-2-yl)-ethyl]-1H-pyrido[2,3-d]pyrimidine-2,4-dione] | 3.31
7 | COc1cccc2c1CC[C@H]1CN(CCn3c(=O)[nH]c4cccnc4c3=O)C[C@@H]21 [3-[2-(6-Methoxy-1,3,3a,4,5,9b-hexahydro-benzo[e]isoindol-2-yl)-ethyl]-1H-pyrido[3,2-d]pyrimidine-2,4-dione] | 8.2
8 | COc1cccc2c1CC[C@H]1CN(CCn3c(=O)[nH]c4cnccc4c3=O)C[C@@H]21 [3-[2-(6-Methoxy-1,3,3a,4,5,9b-hexahydro-benzo[e]isoindol-2-yl)-ethyl]-1H-pyrido[3,4-d]pyrimidine-2,4-dione] | 3.1
9 | COc1cccc2c1CC[C@H]1CN(CCn3c(=O)[nH]c4ccncc4c3=O)C[C@@H]21 [3-[2-(6-Methoxy-1,3,3a,4,5,9b-hexahydro-benzo[e]isoindol-2-yl)-ethyl]-1H-pyrido[4,3-d]pyrimidine-2,4-dione] | 10.6
10 | COc1cccc2c1CC[C@H]1CN(CCn3c(=O)[nH]c4ccccc4c3=O)C[C@@H]21 [3-[2-(6-Methoxy-1,3,3a,4,5,9b-hexahydro-benzo[e]isoindol-2-yl)-ethyl]-1H-quinazoline-2,4-dione] | 1.16
11 | COc1cccc2c1CC[C@H]1CN(CCn3c(=O)[nH]c4sccc4c3=O)C[C@@H]21 [3-[2-(6-Methoxy-1,3,3a,4,5,9b-hexahydro-benzo[e]isoindol-2-yl)-ethyl]-1H-thieno[2,3-d]pyrimidine-2,4-dione] | 2.11
12 | COc1cccc2c1CC[C@H]1CN(CCn3c(=O)[nH]c4c(C)cc(C)cc4c3=O)C[C@@H]21 [3-[2-(6-Methoxy-1,3,3a,4,5,9b-hexahydro-benzo[e]isoindol-2-yl)-ethyl]-6,8-dimethyl-1H-quinazoline-2,4-dione] | 16.3
13 | COc1cccc2c1CC[C@H]1CN(CCn3c(=O)[nH]c4c(C)c(C)ccc4c3=O)C[C@@H]21 [3-[2-(6-Methoxy-1,3,3a,4,5,9b-hexahydro-benzo[e]isoindol-2-yl)-ethyl]-7,8-dimethyl-1H-quinazoline-2,4-dione] | 1.32
14 | COc1cc2c(=O)n(CCN3C[C@@H]4CCc5c(OC)cccc5[C@@H]4C3)c(=O)n(C)c2cc1OC [6,7-Dimethoxy-3-[2-(6-methoxy-1,3,3a,4,5,9b-hexahydro-benzo[e]isoindol-2-yl)-ethyl]-1-methyl-1H-quinazoline-2,4-dione] | 3.31

Other lines, results leading:

Row | Ki [nM] | SMILES
15 | 1.63 | COc1cccc2c1CC[C@H]1CN(CCn3c(=O)[nH]c4ccsc4c3=O)C[C@@H]21 [3-[2-(6-Methoxy-1,3,3a,4,5,9b-hexahydro-benzo[e]isoindol-2-yl)-ethyl]-1H-thieno[3,2-d]pyrimidine-2,4-dione]
16 | 1.01 | COc1cccc2c1CC[C@H]1CN(CCn3c(=O)[nH]c4cscc4c3=O)C[C@@H]21 [3-[2-(6-Methoxy-1,3,3a,4,5,9b-hexahydro-benzo[e]isoindol-2-yl)-ethyl]-1H-thieno[3,4-d]pyrimidine-2,4-dione]
17 | 1.56 | COc1cccc2c1CC[C@H]1CN(CCn3c(=O)[nH]c4cc(C#N)ccc4c3=O)C[C@@H]21 [3-[2-(6-Methoxy-1,3,3a,4,5,9b-hexahydro-benzo[e]isoindol-2-yl)-ethyl]-2,4-dioxo-1,2,3,4-tetrahydro-quinazoline-7-carbonitrile]
18 | 1.64 | COC(=O)c1ccc2c(=O)n(CCN3C[C@@H]4CCc5c(OC)cccc5[C@@H]4C3)c(=O)[nH]c2c1 [3-[2-(6-Methoxy-1,3,3a,4,5,9b-hexahydro-benzo[e]isoindol-2-yl)-ethyl]-2,4-dioxo-1,2,3,4-tetrahydro-quinazoline-7-carboxylic acid methyl ester]
19 | 3.37 | COC(=O)c1cc2[nH]c(=O)n(CCN3C[C@@H]4CCc5c(OC)cccc5[C@@H]4C3)c(=O)c2s1 [3-[2-(6-Methoxy-1,3,3a,4,5,9b-hexahydro-benzo[e]isoindol-2-yl)-ethyl]-2,4-dioxo-1,2,3,4-tetrahydro-thieno[3,2-d]pyrimidine-6-carboxylic acid methyl ester]
20 | 1.04 | COc1cccc2c1CC[C@H]1CN(CCn3c(=O)[nH]c4cccc(C)c4c3=O)C[C@@H]21 [3-[2-(6-Methoxy-1,3,3a,4,5,9b-hexahydro-benzo[e]isoindol-2-yl)-ethyl]-5-methyl-1H-quinazoline-2,4-dione]
21 | 4.07 | COc1cccc2c1CC[C@H]1CN(CCn3c(=O)[nH]c4cc(C)c(C)cc4c3=O)C[C@@H]21 [3-[2-(6-Methoxy-1,3,3a,4,5,9b-hexahydro-benzo[e]isoindol-2-yl)-ethyl]-6,7-dimethyl-1H-quinazoline-2,4-dione]
22 | 11.3 | COc1cccc2c1CC[C@H]1CN(CCn3c(=O)[nH]c4cc(-c5ccccc5)sc4c3=O)C[C@@H]21 [3-[2-(6-Methoxy-1,3,3a,4,5,9b-hexahydro-benzo[e]isoindol-2-yl)-ethyl]-6-phenyl-1H-thieno[3,2-d]pyrimidine-2,4-dione]
23 | 3.33 | COc1cccc2c1CC[C@H]1CN(CCn3c(=O)[nH]c4cc([N+](=O)[O-])ccc4c3=O)C[C@@H]21 [3-[2-(6-Methoxy-1,3,3a,4,5,9b-hexahydro-benzo[e]isoindol-2-yl)-ethyl]-7-nitro-1H-quinazoline-2,4-dione]
24 | 0.92 | COc1cccc2c1CC[C@H]1CN(CCn3c(=O)[nH]c4cccc(Cl)c4c3=O)C[C@@H]21 [5-Chloro-3-[2-(6-methoxy-1,3,3a,4,5,9b-hexahydro-benzo[e]isoindol-2-yl)-ethyl]-1H-quinazoline-2,4-dione]
25 | 6.46 | COc1cc2[nH]c(=O)n(CCN3C[C@@H]4CCc5c(OC)cccc5[C@@H]4C3)c(=O)c2cc1OC [6,7-Dimethoxy-3-[2-(6-methoxy-1,3,3a,4,5,9b-hexahydro-benzo[e]isoindol-2-yl)-ethyl]-1H-quinazoline-2,4-dione]
